In ChEMBL document CHEMBL3045913, “Synthesis and cytotoxicity of novel chrysin derivatives” (Med Chem Res, 2011):

What was measured:
Format in all cases: functional, cell-based
HCT-116 = test: Cytotoxicity against Homo sapiens (human) HCT116 cells by MTT assay
SGC-7901 = test: Cytotoxicity against Homo sapiens (human) SGC7901 cells by MTT assay
DU-145 = test: Cytotoxicity against Homo sapiens (human) DU145 cells by MTT assay
K562 = test: Cytotoxicity against Homo sapiens (human) K562 cells by MTT assay
HeLa = test: Cytotoxicity against Homo sapiens (human) HeLa cells by MTT assay

| Structure (SMILES) | IC50 (HCT-116) [µM] | IC50 (SGC-7901) [µM] | IC50 (DU-145) [µM] | IC50 (K562) [µM] | IC50 (HeLa) [µM] |
| --- | --- | --- | --- | --- | --- |
| CC(C)N(CCOc1cc(O)c2c(=O)cc(-c3ccccc3)oc2c1)C(C)C | 4.6 | 7.98 | 18.1 | 27.8 | 24.2 |
| O=c1cc(-c2ccccc2)oc2cc(OCCNC3CCCCC3)cc(O)c12 | 2.95 | 6.18 | 4.98 | 1.76 | 6.97 |
| O=c1cc(-c2ccccc2)oc2cc(OCCN3CCOCC3)cc(O)c12 | > 100 | 43 | > 100 | > 100 | > 100 |
| O=c1cc(-c2ccccc2)oc2cc(OCCN3CCN(c4ccccc4)CC3)cc(O)c12 | > 100 | > 100 | > 100 | > 100 | > 100 |
| O=c1cc(-c2ccccc2)oc2cc(OCCn3ccnc3)cc(O)c12 | 4.2 | 5.55 | 7.3 | 27.2 | 10.8 |
| Cc1nccn1CCOc1cc(O)c2c(=O)cc(-c3ccccc3)oc2c1 | 3.2 | 7.83 | 8.2 | 10.8 | 9.7 |
| O=c1cc(-c2ccccc2)oc2cc(OCCNCCO)cc(O)c12 | 2.3 | 5.05 | 5.5 | 8.31 | 4.46 |
| O=c1cc(-c2ccccc2)oc2cc(OCCN(CCO)CCO)cc(O)c12 | 22.2 | 59.2 | > 100 | 105 | 86.5 |
| O=c1cc(-c2ccccc2)oc2cc(OCCNc3ccccc3)cc(O)c12 | 35.5 | 69.8 | 68.2 | 31.2 | > 100 |
| CNCCOc1cc(O)c2c(=O)cc(-c3ccccc3)oc2c1 | 2.5 | 4.8 | 2.95 | 7.8 | 3.72 |
| CC(C)NCCOc1cc(O)c2c(=O)cc(-c3ccccc3)oc2c1 | 8.1 | > 100 | > 100 | > 100 | > 100 |
| CCCCNCCOc1cc(O)c2c(=O)cc(-c3ccccc3)oc2c1 | 2.7 | 1.88 | 1.85 | 14.9 | 40.9 |
| CC(C)(C)NCCOc1cc(O)c2c(=O)cc(-c3ccccc3)oc2c1 | 1.87 | 3.15 | 2.75 | > 100 | 4.92 |
| CN(C)CCOc1cc(O)c2c(=O)cc(-c3ccccc3)oc2c1 | 6.2 | 11 | 17.7 | 17.9 | 17.7 |
| O=c1cc(-c2ccccc2)oc2cc(OCCN3CCCCC3)cc(O)c12 | > 100 | 3.1 | 3.17 | 16.9 | 1.7 |
| CCCCN(CCCC)CCOc1cc(O)c2c(=O)cc(-c3ccccc3)oc2c1 | 9.7 | 53.3 | 44.2 | 43.4 | 13.3 |
| O=c1cc(-c2ccccc2)oc2cc(OCCN3CCNCC3)cc(O)c12 | 32.3 | > 100 | 32.5 | > 100 | > 100 |
| CCCNCCOc1cc(O)c2c(=O)cc(-c3ccccc3)oc2c1 | 1.5 | 11.1 | 1.4 | 12.9 | 56.6 |
| CN1CCN(CCOc2cc(O)c3c(=O)cc(-c4ccccc4)oc3c2)CC1 | 18.7 | 55.7 | 28.7 | 23.9 | 47.4 |
| CCCN(CCC)CCOc1cc(O)c2c(=O)cc(-c3ccccc3)oc2c1 | 38 | 23.6 | 8.4 | > 100 | 1.56 |
| CCN(CC)CCOc1cc(O)c2c(=O)cc(-c3ccccc3)oc2c1 | 9.8 | 13.9 | 3.17 | 12.9 | 18.8 |
| O=c1cc(-c2ccccc2)oc2cc(O)cc(O)c12 [CHRYSIN] | > 100 | > 100 | 9.81 | > 100 | 43 |
| O=c1[nH]cc(F)c(=O)[nH]1 [FLUOROURACIL] | – | 2.19 | 2.95 | – | – |
